According to patent US6090801A, “Pharmaceutical compositions containing ceftriaxone and penems” (SmithKline Beecham p.l.c., priority 1993, dated 2000):

What was measured:
serum half-life = type: in vivo; conditions: in words; compared with ceftriaxone
Klebsiella pneumoniae 4 = assay: MIC of ceftriaxone, alone and with compound of formula (I); type: cell-based
Enterobacter cloacae P99 = assay: as above; type: cell-based
[1] = tested on: Bacteroides fragilis VP1 8908; assay: as above; type: cell-based
various microorganisms = assay: enhancement of antibacterial activity of ceftriaxone by compound of formula (I) (MIC data overall); type: cell-based; conditions: with 1 μg/ml compound of formula (I); from β-lactamase inhibitory effect
[2] = in vivo; cited from earlier work
Bacteroides fragilis = conditions: coadministration with tazobactam; J. Antimicrobial Chemotherapy (1993), 32, 307-312; cited from earlier work
[3] = ceftriaxone + 1 μg/1 ml of compound of Formula (I)

SMILES	serum half life (serum half-life)	MIC + 1 μg/1 ml of compound of Formula (I) (Klebsiella pneumoniae 4; [3])	MIC (Klebsiella pneumoniae 4; ceftriaxone alone)	MIC + 1 μg/1 ml of compound of Formula (I) (Enterobacter cloacae P99; Enterobacter cloacae P99, ceftriaxone + 1 μg/1 ml of compound of Formula (I))	MIC (Enterobacter cloacae P99; Enterobacter cloacae, P99, read-out: MIC Ceftriaxone alone)	MIC ([1]; VP18908, ceftriaxone alone)	MIC + 1 μg/1 ml of compound of Formula (I) [1, 3]	enhancement of antibacterial activity of ceftriaxone (various microorganisms)	serum half-lives [2]	activity of ceftriaxone against anaerobes such as Bacteroides fragilis (Bacteroides fragilis)
O=C([O-])C1=CS[C@@H]2/C(=C\c3cn4c(n3)SCC4)C(=O)N12.[Na+] (racemic)	more compatible with ceftriaxone	–	–	–	–	–	–	–	–	–
CO/N=C(\C(=O)N[C@@H]1C(=O)N2C(C(=O)O)=C(CSc3nc(=O)c(=O)[nH]n3C)CS[C@H]12)c1csc(N)n1 [Ceftriaxone, [6R-[6α,7β(Z)]]-7-[[(2-Amino4-thiazolyl)(methoxyimino)acetyl]amino]-8-oxo-3-[[(1,2,5,6-tetrahydro-2-methyl-5-6-dioxo-1,2,4-triazin-3-yl)thio]-methyl]-5-thia-1-azabicyclo[4-2-O]oct-2-ene-2-carboxylic acid]	–	0.5 µg/mL	16 µg/mL	0.5 µg/mL	128 µg/mL	128 µg/mL	2 µg/mL	substantial enhancement of antibacterial activity	ca. 8 hours	enhanced by coadministration with the β-lactamaseinhibitor tazobactam
C[C@]1(Cn2ccnn2)[C@H](C(=O)O)N2C(=O)C[C@H]2S1(=O)=O [tazobactam]	–	–	–	–	–	–	–	–	ca. 1 hours	–
